Laboratory results from article PMC6383948, “Evaluation of a class of isatinoids identified from a high-throughput screen of human kinase inhibitors as anti-Sleeping Sickness agents” (PLoS Neglected Tropical Diseases, 2019).
Several values for one entry are separate records, joined by “and”; a condition that tells them apart may be missing. Identical values can stand only once. Like-named read-outs stand apart in the source and are kept apart here.

Key:
[1] = Shake-flask octanol-water Log D7.4; type: physicochemical; settings: pH 7.4, octanol-water shake-flask
Method: Shake-flask octanol-water distribution coefficient at pH 7.4 (Log D7.4). The aqueous solution used is 10 mM sodium phosphate pH 7.4 buffer. The method has been validated for Log D7.4 ranging from -2 to 5.0.

[2] = system: S. mansoni adults and somules; assay: S. mansoni phenotypic assay, adults and somules (severity score); type: cell-based, Schistosoma mansoni (NMRI isolate); settings: for activity against S. mansoni adults and/or somules: 10 μM; for Adult severity score (10 μM): adults; for Adult severity score (10 μM) / Somule severity score (10 μM): score 0-4; for Somule severity score (10 μM): somules
Method: Maintenance of the Schistosoma mansoni life cycle, preparation of somules (post-infective larvae) and adult worms (≥42-days-old), and co-incubation of these stages with test compounds were as described. An NMRI isolate of S. mansoni was used for all whole-organism screens.
Somules (40 units/well/96w round-bottomed plate) or adults (five paris/well/24w plate) were cultured in the presence of compounds at 10 µM and phenotypic changes observed as a function of time using an Zeiss Axiovert A1 inverted microscope (Table S4). A constrained nomenclature was used to describe the effects of compounds on parasites (changes in shape, motility and density). To generate a partially quantitative output for comparing drug effects, each descriptor was awarded a score of 1 and these were summed to a maximum score of 4 [7-10]: evidence of degeneracy or death was awarded the maximum score of 4. For adults specifically, damage to the tegument (outer surface) was also awarded a score of 4 based on the indication that damage to the patrasite’s surface is lethal in vivo [11]. Assays were performed twice and representative data are shown.

[3] = Mouse pharmacokinetics, blood and brain levels after IP dose; type: in vivo; settings: for Brain level: LLOQ = 25 ng/g; for AUC0-t / Cmax / Tmax: blood
Method: NEU-4391 was administered intraperitoneally (IP) to two groups of female NMRI mice (Group 1 n = 3; Group 2 n = 6). The compound was prepared in 1% (v/v) DMSO:99% (v/v) 20% (w/v) sulfobutyl ether-beta-cyclodextrin (SBE-β-CD) (Captisol) in water and the dosing volume was 10 mL/kg for a total dose of 10 mg/kg. Food and tap water were available ad libitum. Following IP dosing, Group 1 blood samples were collected from the tail vein into capillary tubes containing K2EDTA at the following time-points: 0.0833, 0.25, 0.5, 1, 2, 4, 6, 8 and 24 h.
In order to obtain simultaneous blood and brain samples, Group 2 mice were placed under terminal anaesthetic (isoflurane) and blood samples (0.3 mL) collected from the retro-orbital sinus into K2EDTA tubes at 0.5 h (n = 3) and 4 h (n = 3) after compound administration. Immediately following blood sample collection, death was confirmed by cervical dislocation and the brain removed. Aliquots of each blood sample were diluted in an equal volume of water. Mouse brain samples were weighed, water was added at a 1/2 (w/v) ratio (brain/water), and then homogenized. Both blood and brain samples were stored -80°C until analysis.
Diluted blood and brain homogenates were processed under standard liquid-liquid extraction procedures using acetonitrile containing an internal standard (Nifedipine) and analyzed by LC-MS/MS. Non-compartmental analysis was performed using the Phoenix pharmacokinetic software version 1.4 (Certara) and Cmax, tmax, AUClast, AUC, and t1/2 were estimated.

[4] = IP 10 mg/kg single dose, individual mice 001F-003F, 10 mg/kg

With `CN(C)S(=O)(=O)c1ccc(N/N=C2\C(=O)Nc3ccccc32)cc1` [NEU-2118, (Z)-N,N-Dimethyl-4-(2-(2-oxoindolin-3-ylidene)hydrazinyl)benzenesulfonamide] the logD [1] was 3.4, the “activity against S. mansoni adults and/or somules” value [2] was “moderate and variable activity” and the “Adult severity score (10 μM)” value ([2]; 3h) was 3. For the same compound, the “Adult severity score (10 μM)” value ([2]; 6h) was 3, the “Adult severity score (10 μM)” value ([2]; 24h) was 3 and the “Adult severity score (10 μM)” value ([2]; 48h) was 3. For the same compound, the “Somule severity score (10 μM)” value ([2]; 24h) was 0 and the “Somule severity score (10 μM)” value ([2]; 48h) was 0.

With `CNS(=O)(=O)c1ccc(N/N=C2\C(=O)Nc3ccccc32)cc1` [NEU-2124, (Z)-N-Methyl-4-(2-(2-oxoindolin-3-ylidene)hydrazinyl)benzenesulfonamide] the logD [1] was 2.8, the “activity against S. mansoni adults and/or somules” value [2] was “moderate and variable activity” and the “Adult severity score (10 μM)” value ([2]; 3h) was 2. For the same compound, the “Adult severity score (10 μM)” value ([2]; 6h) was 2, the “Adult severity score (10 μM)” value ([2]; 24h) was 2 and the “Adult severity score (10 μM)” value ([2]; 48h) was 2. The “Somule severity score (10 μM)” value ([2]; 24h) was 1 and the “Somule severity score (10 μM)” value ([2]; 48h) was 0.

In the case of `CNS(=O)(=O)c1ccc(N/N=C2\C(=O)Nc3cccc(C=C(C)C)c32)cc1` [NEU-4391, (Z)-N-Methyl-4-(2-(4-(2-methylprop-1-en-1-yl)-2-oxoindolin-3-ylidene)hydrazinyl)benzenesulfonamide], the Brain level ([3]; 0.5 h after IP 10 mg/kg, individual mice N1-N3) is reported as “<LLOQ”, the Blood level ([3]; 0.5 h after IP 10 mg/kg, individual mice N1-N3, LLOQ = 25 ng/mL, 10 mg/kg) is reported as “<LLOQ and 43.3 ng/mL” and the Brain level ([3]; 4.0 h after IP 10 mg/kg, individual mice N1-N3) is reported as “<LLOQ”. For the same compound, the Blood level ([3]; 4.0 h after IP 10 mg/kg, individual mice N1-N3, LLOQ = 25 ng/mL) was “<LLOQ”, the “Peripheral blood concentrations after 1 h” value ([3]; IP 10 mg/kg, Fig 6A) was “below the lower limit of quantitation” and the “concentration in the brain” value ([3]; IP 10 mg/kg, all time points) was “below the limit of detection”. For the same compound, the AUC0-t [3, 4] was 34.5 ng·h/mL and 39.2 ng·h/mL, the Cmax [3, 4] was 45.0 ng/mL and 56.5 ng/mL and the Tmax [3, 4] was 30 min. It also gave a concentration at 0.5 h ([3]; female, NMRI, mouse, whole blood, ip, 10 mg/kg, 0.5 h after IP 10 mg/kg, individual mice N1-N3, LLOQ = 25 ng/mL, read-out: Blood level) of 50.7 ng/mL, a concentration at 0.5 h ([3]; female, NMRI, mouse, whole blood, ip, 10 mg/kg, 0.5 h after IP 10 mg/kg, read-out: Blood level (mean)) of 47 ng/mL and an AUC0-t ([3]; female, NMRI, mouse, whole blood, ip, 10 mg/kg, IP 10 mg/kg single dose, individual mice 001F-003F, read-out: AUC0-t) of 39.3 ng·h/mL. For the same compound, the Cmax ([3]; female, NMRI, mouse, whole blood, ip, 10 mg/kg, IP 10 mg/kg single dose, individual mice 001F-003F, read-out: Cmax) was 48.9 ng/mL, the Tmax ([3]; female, NMRI, mouse, whole blood, ip, 10 mg/kg, IP 10 mg/kg single dose, individual mice 001F-003F, read-out: tmax) was 15 min and the AUC0-t ([3]; female, NMRI, mouse, whole blood, ip, 10 mg/kg, IP 10 mg/kg, mean of n = 3, read-out: AUC0-t (mean)) was 37.7 ng·h/mL. It also gave a Cmax ([3]; female, NMRI, mouse, whole blood, ip, 10 mg/kg, IP 10 mg/kg, mean of n = 3, read-out: Cmax (mean)) of 50.1 ng/mL, a Tmax ([3]; female, NMRI, mouse, whole blood, ip, 10 mg/kg, IP 10 mg/kg, n = 3, read-out: tmax (mean row, range)) of 15 to 30 min and a Cmax ([3]; female, NMRI, mouse, whole blood, ip, 10 mg/kg, IP 10 mg/kg, read-out: Cmax) of 130 nM.
